We go through 15 compounds from patent US20070161697A1, “Hydrazide type compounds and the use thereof in pharmaceutical compositions for the treatment of cardiovascular diseases” (priority 2004, published 2007).

Structures can show the parent of a compound that is named as a salt. Where two headings read alike, the source gives them in different places.

As a reminder, the inhibition is the share of the control response that was lost under treatment.

The test system of test [1] is THP1 cells. Put plainly: Inhibition of binding and accumulation of cyanine 3-marked LDLox as lipid vesicles in differentiated THP1 macrophage cells. The test is classed as cell-based. The conditions noted are these: Homo sapiens, 2.5 μM. On the procedure: The culture medium may be replaced every two days.
In the present example, the accumulation of lipid vesicles within the cell was measured using THP1 cells following fixation with paraformaldehyde in PBS medium using a solution containing a fluorescent marker of the Oil Red O type in order to visualise the vesicles. The image of the cells rich in vesicles was analysed using a microscope ecqluipped with a CCD camera and software necessary for the analysis.
The medium was replaced every 2-3 days.
The differentiated THP-1 were subsequently incubated with LDLox coupled with cyanine-3 (1.5 μg/ml) in the presence or absence of the molecule CGP02-01 (concentrations of between 10^−5M and 3.1.6 10^−10M) for 24 hours at 37° C., 5% CO2. […] Each image was analysed and quantified with the MetaMorph software (Universal Imaging).

In test [2] the test system is THP1 cells. The description is as above. In kind it is cell-based. The conditions noted are these: 3 μg/ml oxLDL-cyanine 3, 25 hours, different concentrations, FIG. 7.
In test [3] the test system is Wistar rats. Put plainly: Total cholesterol in plasma, rats on dietary regimen rich in fructose. The test is classed as in vivo. The conditions noted are these: 50 mg/kg oral, 3 weeks of treatment. The protocol:
Secondly, the activity of the compound CGP 02-01 was studied using a reference rat-fructose model. Groups of Wistar rats (n=12) were subjected for 3 weeks to a dietary regimen containing […] of fructose. Under these conditions, the rats develop a metabolic syndrome comprising hyperglycaemia, hyperinsulinaemia, hypercholesterolaemia and hypertriglyceridaemia. Groups of rats subsequently received by forced feeding 50 mg/kg of the compound CGP 02-01 dissolved in a 2% tween solution prepared in methylcellulose. The blood samples for the biochemical analyses were performed after 1, 2 and 3 weeks. Independent groups of rats wee treated under the same conditions with metformin hydrochloride at a dose of 50 mg/kg. The metformin served as a reference in this metabolic syndrome model. The circulating total cholesterol may be measured by enzymatic assay using the commercially available kit. This assay may for example use an enzymatic sequence of the cholesterol-esterase/cholesteroloxydase/chromogenic peroxidase type. In summary, the total esterified cholesterol is transformed into free cholesterol and fatty acid by the action of cholesterol esterase. The non-esterified cholesterol is subsequently measured by the formation of quinoeimine in the presence of cholesterol oxidase and peroxidise. The intensity of the quinoneimine coloration is proportional to the quantity of cholesterol present in the sample.

Test [4] relates to Wistar rats. As to the kind of experiment: Circulating triglycerides, rats on dietary regimen rich in fructose. The conditions noted are these: oral. The test is classed as in vivo. The protocol:
Secondly, the activity of the compound CGP 02-01 was studied using a reference rat-fructose model. Groups of Wistar rats (n=12) were subjected for 3 weeks to a dietary regimen containing […] of fructose. […] Groups of rats subsequently received by forced feeding 50 mg/kg of the compound CGP 02-01 dissolved in a 2% tween solution prepared in methylcellulose. The blood samples for the biochemical analyses were performed after 1, 2 and 3 weeks. Independent groups of rats wee treated under the same conditions with metformin hydrochloride at a dose of 50 mg/kg. The metformin served as a reference in this metabolic syndrome model. Assay of serum triglycerides may be performed enzymatically using the commercially available kit. One may use kits from Biomérieux for example (ref. 61.238). In summary, the triglycerides are treated with a lipase in order to generate fatty acids. In the presence of ATP, the glycerol is transformed by glycerokinase into glycerol 3 phosphate. The glycerol 3 phosphate is subsequently transformed into dihydroxyacetone in generating oxygenated water (H202) which may be detected by formation of quinoneimine in the presence of parachlorophenol, amino-4-antipyrin and peroxidase. The intensity of the quinoneimine coloration is subsequently measured at 505 nm. This coloration is proportional to the quantity of triglycerides present in the sample.

The subject of test [5] is Wistar rats. As to the kind of experiment: Insulin in plasma, rats on dietary regimen rich in fructose. The test is classed as in vivo. The conditions noted are these: 50 mg/kg oral. On the procedure:
Secondly, the activity of the compound CGP 02-01 was studied using a reference rat-fructose model. Groups of Wistar rats (n=12) were subjected for 3 weeks to a dietary regimen containing […] of fructose. […] Groups of rats subsequently received by forced feeding 50 mg/kg of the compound CGP 02-01 dissolved in a 2% tween solution prepared in methylcellulose. The blood samples for the biochemical analyses were performed after 1, 2 and 3 weeks. Independent groups of rats wee treated under the same conditions with metformin hydrochloride at a dose of 50 mg/kg. The metformin served as a reference in this metabolic syndrome model. Assay of insulin in plasma may be performed by radioimmunological assay using commercially available kits comprising specific anti-insulin antibodies of mice or rats. One may for example use the rat/mouse ELISA kits, Linco research (ref. EZRMI-13K).

[6] abbreviates: THP-1, cells expressing the scavenger CD36, lipoproteins marked with cyanine 3, read-out: Inhibition of accumulation of LDLox in (%).
The mark [7] stands for this setting: THP-1 cells, 24 hours, read-out: Inhibition at 2.5 μM on THP-1 cells (24 hours).

Turning to `COc1cc(O)c(/C=N/NC(=O)C=Cc2ccco2)c(OC)c1` (stereo in doubt) [CGP02-02, (2Z)-3-(2-furyl)-N′-[(1E)-(2-hydroxy-4,6-dimethoxyphenyl)methylene] acrylohydrazide], the inhibition at 2.5 µM in the test on THP1 cells [1] (setting [6]) and in the test on THP1 cells [1] (setting [7]) was 64% in each case. For the same compound, in the test with THP1 cells [2], the “Inhibition of formation of foamy cells” value was “inhibition of formation of foamy cells”.

In the case of `COc1cc(O)c(/C=N/NC(=O)c2ccc(C)s2)c(OC)c1` [CGP02-03, N′-[(1E)-(2-hydroxy-4,6-dimethoxyphenyl)methylene]-5-methylthiophene-2-carbohydrazide], the inhibition at 2.5 µM with THP1 cells [1] (setting [6]) and with THP1 cells [1] (setting [7]) was 82% each time. For the same compound, in the test with THP1 cells [2], the “Inhibition of formation of foamy cells” value is reported as “inhibition of formation of foamy cells”.

As for `COc1cc(O)c(/C=N/NC(=O)c2ccc(N(C)C)cc2)c(OC)c1` [CGP02-04], the inhibition at 2.5 µM with THP1 cells [1] (setting [6]) and with THP1 cells [1] (setting [7]) was 61% in each case.

Take `COc1cc(O)c(/C=N/NC(=O)c2ccccc2CCc2ccccc2)c(OC)c1` [CGP02-05, 2-phenethylbenzoic acid (2-hydroxy-4,6-dimethoxy-benzylidene)-hydrazide]: the inhibition at 2.5 µM in the test with THP1 cells [1] (setting [6]) and in the test on THP1 cells [1] (setting [7]) was 77% each time.

As for `CCC(=O)Nc1cccc(C(=O)N/N=C/c2c(O)cc(OC)cc2OC)c1` [CGP02-06], the inhibition at 2.5 µM in the test with THP1 cells [1] (setting [6]) and with THP1 cells [1] (setting [7]) was 71% throughout.

As for `COc1cc(O)c(/C=N/NC(=O)c2ccco2)c(OC)c1` [CGP02-07, 2-furancarboxylic acid (2-hydroxy-4,6-dimethoxy-benzylidene)-hydrazide], the inhibition at 2.5 µM in the test on THP1 cells [1] (setting [6]) and in the test on THP1 cells [1] (setting [7]) was 63% throughout.

For the compound `COc1cc(O)c(/C=N/NC(=O)Cc2c[nH]c3ccccc23)c(OC)c1` [CGP02-08, (1H-indol-3-yl) acetic acid (2-hydroxy-4,6-dimethoxybenzylidene)-hydrazide], the inhibition at 2.5 µM with THP1 cells [1] (setting [6]) and with THP1 cells [1] (setting [7]) was 58% each time.

For the compound `COc1cc(O)c(/C=N/NC(=O)CC2Sc3ccccc3NC2=O)c(OC)c1` (centres unmarked) [CGP02-10], the inhibition at 2.5 µM with THP1 cells [1] (setting [6]) and in the test on THP1 cells [1] (setting [7]) was 52% in each case.

Take `COc1cc(O)c(/C=N/NC(=O)c2ccccc2Oc2ccccc2)c(OC)c1` [CGP02-11, 2-phenoxy-benzoic acid (2-hydroxy-4,6-dimethoxybenzylidene)-hydrazide]: the inhibition at 2.5 µM with THP1 cells [1] (setting [6]) and with THP1 cells [1] (setting [7]) was 44% each time.

As to `Cc1nn(-c2ccccc2)c(C)c1/C=N/NC(=O)c1ccc([N+](=O)[O-])o1` [CGP02-12], the inhibition at 2.5 µM in the test with THP1 cells [1] (setting [6]) and in the test on THP1 cells [1] (setting [7]) was 43% each time.

On to `COc1cc(O)c(/C=N/NC(=O)c2c(F)cccc2F)c(OC)c1` [CGP02-13, 2,6-difluorobenzoic acid (2-hydroxy-4,6-dimethoxybenzylidene)-hydrazide], for which the inhibition at 2.5 µM in the test with THP1 cells [1] (setting [6]) and in the test on THP1 cells [1] (setting [7]) was 68% throughout.

With `COc1cc(O)c(/C=N/NC(=O)c2ccc(C(F)(F)F)cc2)c(OC)c1` [CGP02-16, 4-trifluoromethylbenzoic acid (2-hydroxy-4,6-dimethoxy-benzylidene)-hydrazide], the inhibition at 2.5 µM in the test with THP1 cells [1] (setting [6]) and in the test with THP1 cells [1] (setting [7]) was 77% in each case.

Take `CCN(CC)c1ccc(/C=N/NC(=O)c2ccc(OC)c(OC)c2)c(O)c1` [CGP02-17, 3,4-dimethoxybenzoic acid (4-diethylamino-2-hydroxy-benzylidene)-hydrazide]: the inhibition at 2.5 µM with THP1 cells [1] (setting [6]) and with THP1 cells [1] (setting [7]) was 88% each time.

For the compound `O=C(N/N=C/c1cc(Br)cc(Br)c1O)c1cc2ccccc2s1` [CGP02-18, benzo[b]thiophene-2-carboxylic acid (3,5-dibromo-2-hydroxy-benzylidene)-hydrazide], the inhibition at 2.5 µM in the test with THP1 cells [1] (setting [6]) and with THP1 cells [1] (setting [7]) was 78% in each case.

On to `CN(C)C(=N)N=C(N)N` [Metformin, metformin hydrochloride, reference compound], for which the “Reduction in total cholesterol” value with Wistar rats [3] was determined as 16%. Moreover, the “Plasma total cholesterol level” value in the test on Wistar rats [3] (control 0.79±0.05) was 0.66 ± 0.02 g/L. Further, the Plasma triglyceride level in the test with Wistar rats [4] (50 mg/kg, 3 weeks, control 1.39±0.13) was determined as 1.21 ± 0.08 g/L. In addition, the “Effect on plasma triglyceride level” value with Wistar rats [4] (same conditions) was “does not have any effect”. The “Variation (reduction) of insulin level” value in the test on Wistar rats [5] amounted to 16.2%.
